For assay [1], the system named is tau tangles/Aβ plaques on AD brain sections. The assay is described as follows: Assay 1: direct staining of human Alzheimer's disease brain sections (fluorescence). The settings on record: tangles; for Direct staining of tau tangles on AD brain sections at 100 μM: 100 μM compound. It is filed as binding. Also noted: key to Direct staining of tau tangles/Aβ plaques on AD brain sections at 100 μM / Direct staining of tau tangles on AD brain sections at 100 μM / Direct staining of Aβ plaques on AD brain sections at 100 μM / Direct staining of tau tangles on AD brain sections (footnote a: at 250 μM): − (No); +++ (strong); ++ (good); + (weak). In a few lines:
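Compounds (100 μM, 50% aqueous ethanol, 20 min, RT, dark) applied directly to fixed […] frozen amygdala sections of Braak stage V-VI Alzheimer's brains. After washing and 0.1% Sudan Black treatment against autofluorescence, sections were imaged microscopically for fluorescent staining.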

Assay [2] concerns tau tangles on AD brain section. The assay is described as follows: Assay 1: displacement of RefA on human AD brain sections (fluorescence). It is filed as binding. The settings on record: for Selectivity (tau/Abeta): ratio of competition on tau tangles to competition on Aβ plaques. An outline of the steps:
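Braak V-VI AD amygdala frozen sections were preincubated with test compound at 250 μM in 50% ethanol for 20 min at room temperature. Fluorescent RefA at 1 μM in 50% ethanol was then added for 20 min, imaged at 470 nm excitation, and tangles were quantified.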

The target in another assay is AD brain-enriched PHF (Homo sapiens, UniProt P10636). The assay is described as follows: Assay 2 (filter trap): [3H]RefA radio-binding competition assay and Ki on PHF. The settings on record: [^3H]RefA 10 nM, PHF diluted 1/80, compound 0.12 nM to 50 μM. As for the experimental part: Displacement of [^3H]RefA by Compounds of this Invention
Sequence of AD brain-enriched PHF (P10636 623-708 limits assumed): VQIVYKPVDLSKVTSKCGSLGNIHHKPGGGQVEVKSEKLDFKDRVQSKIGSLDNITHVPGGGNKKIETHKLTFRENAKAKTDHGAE
50 g of frontal lobe tissue from post-mortem brain of an Alzheimer's disease (AD) patient were obtained from the London Tissue Bank. The patient was a […] and died […]. The brain sample was collected 5 hours post-mortem and characterized for Braak disease stage (Braak, H.; Braak, E. Acta Neuropathol., 1991, 82, 239-259) as stage VI. For the enrichment of PHF's, around 15 g of the AD human brain was thawed on ice and homogenized with 50 ml of homogenization buffer [0.75 M NaCl in RAB buffer (100 mM 2-(N-morpholino) ethanesulfonic acid (MES), 1 mM EGTA, 0.5 mM MgSO4, 2 mM DTT, pH 6.8) supplemented with protease inhibitors (Complete; Roche 11697498001) in a glass Dounce homogenizer. The homogenate was then incubated at 4° C. for 20 min to let any residual microtubules depolymerize, before the homogenate was transferred into polycarbonate centrifuge bottles (16×76 mm; Beckman 355603) and centrifuged at 11,000 g (12,700 RPM) in an ultracentrifuge (Beckman, XL100K) for 20 min at 4° C. using the pre-cooled 70.1 rotor (Beckman, 342184). Pellets were kept on ice. Supernatants were pooled into polycarbonate bottles and centrifuged again at 100,000 g (38,000 RPM) for 1 h at 4° C. in the 70.1 Ti rotor to isolate PHF-rich pellets, whereas soluble tau remained in the supernatants. The pellets from the first and second centrifugations were re-suspended in 120 mL of extraction buffer [10 mM Tris-HCl pH 7.4, 10% sucrose, 0.85 M NaCl, 1% protease inhibitor (Calbiochem 539131), 1 mM EGTA, 1% phosphatase inhibitor (Sigma P5726 and P0044)]. The solution was then transferred into polycarbonate centrifuge bottles (16×76 mm; Beckman 355603) and centrifuged at 15,000 g (14,800 RPM) in an ultracentrifuge (Beckman, XL100K) for 20 min at 4° C. using the 70.1 Ti rotor. In the presence of 10% sucrose and at low speed centrifugation, most PHF remained in the supernatant whereas intact or fragmented NFTs and larger PHF aggregates were pelleted. The pellets were discarded. 20% Sarkosyl (Sigma L7414-10ML) was added to the supernatants to a final concentration of 1% and stirred at room temperature for 1 h. This solution was then centrifuged into polycarbonate bottles at 100,000 g (38,000 RPM) for 1 h at 4° C. in the 70.1 Ti rotor, and the pellets containing PHF-rich material were re-suspended in a total final volume of 1.5 mL of PBS, aliquoted and stored at −80° C.
[^3H]RefA Radio-Binding Competition Assay
AD brain-enriched PHF diluted 1/80 were incubated in the presence of [^3H]RefA at 10 nM and the example compounds of this invention at 2.5 μM (250× excess), for 45 minutes at 37° C. Samples were then analyzed by on GF/B filter plates as described above (in the section “[^3H]RefA radio-binding assay and determination of the dissociation constant (Kd)). Non-specific signal was determined again with an excess of un-labeled RefA and specific binding calculated by subtracting the non-specific signal from the total signal. Competition was calculated as percent, where 0% was defined as the specific binding in the presence of vehicle (2.8% DMSO in PBS) and 100% as the values obtained in the presence of excess cold RefA. Similar assays were performed to determine the competition of the cold compounds on [^3H]RefA on in vitro aggregated recombinant human tau or Abeta1-42 For both recombinant proteins, 20 μg/mL of aggregates were incubated with 10 nM of [^3H]RefA for recombinant human tau or 80 nM of [^3H]RefA for recombinant human Abeta1-42.
Determination of the Binding Affinity (Ki)
Samples were then analyzed on GF/B filter plates as described above and Ki values calculated using Prism V5 (GraphPad).

Where only a bound is given, the exact number is not on record here.

Turning to `Cn1c2ccncc2c2ccc(Nc3ccc(F)c(F)c3)nc21` [Example 2], the “Direct staining of tau tangles on AD brain sections (footnote a: at 250 μM)” value in assay [1] (250 μM compound) is recorded as “+ (tangles)^a”. Also, in assay [2], the “Competition on AD brain section tau tangles (1 μM RefA vs. 250 μM compound)” value amounted to 96% and the “Selectivity (tau/Abeta)” value was more than 96 fold. The compound further displayed an inhibitory constant (Ki) at AD brain-enriched PHF of 22 nM.
Regarding `Cn1c2ccncc2c2ccc(Nc3cccc(OCCF)c3)nc21` [Example 8], the “Direct staining of tau tangles on AD brain sections at 100 μM” value in assay [1] is given as “++ (tangles)”. Also, in assay [2], the “Competition on AD brain section tau tangles (1 μM RefA vs. 250 μM compound)” value amounted to 90% and the “Selectivity (tau/Abeta)” value is listed as approximately 15 fold. The compound also yielded an inhibition constant (Ki) at AD brain-enriched PHF of 26 nM.
For `Cn1c2ccncc2c2ccc(Nc3ccc(OC(F)F)cc3)nc21` [Example 9] the same measures were “++ (tangles)”, 97%, more than 97 fold and 7.8 nM.

For the origin of these results see patent US10662193B2, “Carbazole and carboline compounds for use in the diagnosis, treatment, alleviation or prevention of disorders associated with amyloid or amyloid-like proteins” (AC IMMUNE SA, priority 2014, dated 2020).
